These are literature values, as cited in US11957648B2, “Method of initiating or escalating dofetilide dose and formulations therefor” (Academic Pharmaceuticals, Inc., priority 2018, dated 2024).

One series concerns QTc interval. To be noted: slope of plasma concentration vs QTc; Sedgwick et al; cited from earlier work.
The conditions of series [1]: oral dosing; cited from earlier work.

On to `CN(CCOc1ccc(NS(C)(=O)=O)cc1)CCc1ccc(NS(C)(=O)=O)cc1` [Dofetilide, β-((p-methanesulfonamidophenethyl)methylamino)methanesulfono-p-phenetidide], for which the “QTc change per dofetilide plasma concentration” value with QTc interval was 15 to 25 ms/ng/mL. Also, in series [1], the “time to reach steady state concentration” value is “at least 3 days”.
